“And” between values parts separate entries of the source, which are not always exact repeats. Identical values can stand only once. Like-named read-outs stand apart in the source and are kept apart here. Peptide text beside a SMILES is read from it. * marks the point of attachment. αGalNAc = CC(=O)N[C@@H]1[C@@H](O)[C@@H](O)[C@@H](CO)O[C@@H]1*
How the values were obtained:
[1] = target: T1, DmC1GalT1^T43-Q388 (Drosophila melanogaster, UniProt Q7K237); assay: UDP-Glo glycosylation kinetics of DmC1GalT1 T43-Q388; conditions: for kcat app/Km app (catalytic efficiency): ± standard error; for Km: read-out: Km app
T1 sequence (Q7K237 43-388): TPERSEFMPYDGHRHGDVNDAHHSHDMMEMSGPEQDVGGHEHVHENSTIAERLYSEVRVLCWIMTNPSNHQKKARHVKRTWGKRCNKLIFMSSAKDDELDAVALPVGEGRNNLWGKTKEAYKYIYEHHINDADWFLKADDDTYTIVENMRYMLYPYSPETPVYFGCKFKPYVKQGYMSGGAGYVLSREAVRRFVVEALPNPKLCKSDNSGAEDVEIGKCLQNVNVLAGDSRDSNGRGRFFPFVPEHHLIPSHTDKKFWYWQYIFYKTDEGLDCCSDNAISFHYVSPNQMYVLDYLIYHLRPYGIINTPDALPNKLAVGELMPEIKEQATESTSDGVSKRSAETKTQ

[2] = target: T1, DmC1GalT1^T43-Q388; assay: Isothermal titration calorimetry (ITC); assay type: binding; set-up: made in house
Description: ITC was used to characterize the interaction of DmC1GalT1^T43-Q388 with UDP, APDT*RP with and without UDP, APDTRP with UDP, and P4/P7 with and without UDP. All experiments were carried out in an Auto-iTC200 (Microcal, GE Healthcare) at 20 °C. The titration of DmC1GalT1^T43-Q388 with UDP was carried out at 100 μM of the enzyme with 800 μM UDP in 25 mM TRIS pH 7.5, 150 mM NaCl and 1 mM MnCl2. The titrations with APDT*RP and P4/P7 in the absence of UDP were carried out at 60 μM of the enzyme with 2 mM P4/P7 in 25 mM TRIS pH 7.5, 150 mM NaCl and 1 mM MnCl2. To determine the Kds for APDT*RP, APDTRP and P4/P7 under an excess of UDP, the experiments were made in 25 mM TRIS pH 7.5, 150 mM NaCl, 1 mM UDP and 1 mM MnCl2. The concentration of the enzyme was 60 μM for the titrations of APDT*RP and APDTRP and 50 μM for the titration with P4/P7. The concentration of the (glyco)peptides was 2 mM in all the ITC experiments. The experiments were performed in duplicate. Data integration, correction and analysis were carried out in Origin 7 (Microcal). The data were fit to a one-site equilibrium-binding model. Stoichiometry (n) of binding in all cases was ~1:1 except for UDP whose n = 0.4.

[3] = target: T1, DmC1GalT1^T43-Q388; assay: STD NMR experiments; assay type: binding; set-up: made in house; conditions: for STD response: presence of UDP ([…]) and 150 µM MnCl2, 20 µM enzyme, 710 µM ligand
Description: STD NMR experiments were performed using a 1:35 molar ratio, defined by 20 μM DmC1GalT1^T43-Q388 and 710 μM ligands (α-O-methyl-GalNAc, and (glyco)peptides), and 25 mM Tris(D11)-DCl buffer, pD 7.5, with 150 mM NaCl and 150 µM MnCl2 in D2O. […] In the presence of 150 µM MnCl2, strong paramagnetic relaxation enhancements are observed for UDP, which prevents the observation of UDP proton signals in the NMR spectra. […] STD NMR spectra (stddiffesgp pulse sequence from Bruker pulse program library) were acquired with 1728 scans and 64 K data points, in a spectral window of 12335.53 Hz centered at 2818 Hz. Selective saturation (on resonance) was performed by irradiating at 7 and/or −0.5 ppm (depending if the ligand contains or not aromatic residues) using a series of 40 Eburp2.1000-shaped (from Bruker shaped pulses library) 90° pulses (50 ms) for a total saturation time of 2 s, and a relaxation delay of 4 s. For the reference spectrum (off resonance), the samples were irradiated at 100 ppm. Proper control experiments were performed for each ligand in the absence of protein and residual STD signals of the methyl groups of Ala/Thr were observed. […] Protein control experiments were also accomplished using DmC1GalT1^T43-Q388 in absence of a ligand and also subtracted from STD experiment. The STD spectrum (ISTD) was obtained by subtracting the on-resonance spectrum (Ion) to the off-resonance spectrum (Ioff). The % of STD (ISTD/Ioff × 100) was estimated by comparing the intensity of the signals in the STD spectrum (ISTD) with the signal intensities of the reference spectrum (Ioff). The STD amplification factor (STDAF) was also estimated by multiplying the % STD values by the ligand excess, which in the case of our experiments was 35 for every ligand. To determine the STD-derived epitope map the relative % of STD were calculated by setting to 100% the STD signal of the proton with the highest STD intensity and calculating the others accordingly (Supplementary Tables 2–4). Some protons were not able to be assessed with accuracy due to the use of water suppression or low signal/noise ratio and display a blue circle in the STD-derived epitope maps. Moreover, the resonances overlapped on the ^1H-NMR spectrum were considered in STD estimation and are labelled as *.

[4] = acceptor varied, 500 µM UDP-Gal, 500 nM enzyme, pH 7.5, 30 min 37 °C, n = 2
[5] = Kd, absence of UDP, 2 mM glycopeptide, 60 µM enzyme, 25 mM TRIS pH 7.5, 150 mM NaCl, 1 mM MnCl2, 20 °C, one-site fit ± fit error, n = 2
[6] = Kd, excess UDP (1 mM UDP, 1 mM MnCl2), 2 mM (glyco)peptide, 50–60 µM enzyme, 25 mM TRIS pH 7.5, 150 mM NaCl, 20 °C, one-site fit ± fit error, n = 2
[7] = acceptor varied, 500 µM UDP-Gal, 500 nM enzyme, pH 7.5, 30 min 37 °C, Michaelis–Menten fit ± standard error, n = 2
[8] = acceptor substrate varied (P1–P7 12.5–500 µM; APDT*RP/APDS*RP 12.5–1000 µM; α-O-methyl-GalNAc up to 2 mM), 500 µM UDP-Gal, 500 nM enzyme, 25 mM Tris pH 7.5, 150 mM NaCl, 50 µM MnCl2, 1 mg/ml BSA, 30 min 37 °C, Michaelis–Menten fit ± standard error, n = 2
[9] = excess UDP (1 mM), 1 mM MnCl2, 20 °C
[10] = UDP titration, 1 mM MnCl2, 20 °C

## CC(=O)N[C@H]1[C@@H](O[C@H](C)[C@H](NC(=O)[C@H](CC(=O)O)NC(=O)[C@H](C)NC(=O)[C@@H](N)Cc2ccc(O)cc2)C(=O)NCC(=O)N2CCC[C@H]2C(=O)N[C@@H](Cc2ccccc2)C(N)=O)O[C@H](CO)[C@H](O)[C@@H]1O [P7] (H-YADT(αGalNAc)GPF-NH2)
[1]; [4]
  kcat app/Km app (catalytic efficiency): 478.8 M⁻¹ s⁻¹
[2]; [5]
  Kd: 37.1 µM
[2]; [6]
  Kd: 60 µM

## CO[C@H]1O[C@H](CO)[C@H](O)[C@H](O)[C@H]1NC(C)=O [α-O-methyl-GalNAc]
[1]; 500 µM UDP-Gal
  activity as acceptor substrate: kinetic parameters could not be determined
[1]; [7]
  Vmax app: 548.9 nmol/min/mg
[1]; at a saturating concentration of the glycopeptides (~500 µM)
  initial activity relative to that achieved with APDT*RP: half
[1]; [8]
  Km: 10.3 mM
[1]; up to 2 mM substrate
  saturation of the enzyme: did not reach saturation up to 2 mM
[3]; on resonance 7 ppm
  STDAF, CH3 (NHAc) GalNAc: 20.0
  STDAF, H2 GalNAc: 45.0
  STDAF, H3 GalNAc: 24.9
  STDAF, H4 GalNAc: 27.9
  STDAF, H5-GalNAc: 25.8
  STDAF, H6-GalNAc: 29.5
  STDAF, OMe: 16.6
  relative % STD, CH3 (NHAc) GalNAc: 44%
  relative % STD, H3 GalNAc: 55%
  relative % STD, H4 GalNAc: 62%
  relative % STD, H5-GalNAc: 57%
  relative % STD, H6-GalNAc: 66%
  relative % STD, OMe: 37%
[3]; on resonance -0.5 ppm
  STDAF, CH3 (NHAc) GalNAc: 18.9
  STDAF, H3 GalNAc: 20.0
  STDAF, H4 GalNAc: 28.7
  STDAF, H6-GalNAc: 23.6
  STDAF, OMe: 17.6
  relative % STD, CH3 (NHAc) GalNAc: 61%
  relative % STD, H3 GalNAc: 65%
  relative % STD, H4 GalNAc: 93%
  relative % STD, H6-GalNAc: 77%
  relative % STD, OMe: 57%
[3]; on resonance -0.5 ppm, […] UDP, 150 µM MnCl2, 298 K
  STDAF, H2 GalNAc: 30.7
[3]
  STD response: clearly presented STD enhancements

## CC(=O)N[C@H]1[C@@H](O[C@H](C)[C@H](NC(=O)[C@H](C)NC(=O)[C@H](C)NC(=O)[C@@H]2CCCN2)C(=O)NCC(=O)N2CCC[C@H]2C(=O)N[C@@H](Cc2ccc(O)cc2)C(N)=O)O[C@H](CO)[C@H](O)[C@@H]1O [P4] (H-PAAT(αGalNAc)GPY-NH2)
[1]; [4]
  kcat app/Km app (catalytic efficiency): 1130 ± 100 M⁻¹ s⁻¹ and 1127 M⁻¹ s⁻¹
[2]; [5]
  Kd: 41 µM

## CC(=O)N[C@H]1[C@@H](O[C@H](C)[C@H](NC(=O)[C@H](CC(=O)O)NC(=O)[C@@H]2CCCN2C(=O)[C@H](C)N)C(=O)N[C@@H](CCCNC(=N)N)C(=O)N2CCC[C@H]2C(N)=O)O[C@H](CO)[C@H](O)[C@@H]1O [APDT*RP]
[1]; [4]
  kcat app/Km app (catalytic efficiency): 300 ± 67 M⁻¹ s⁻¹ and 301.5 M⁻¹ s⁻¹
[2]; [6]
  Kd: 173 µM
[2]; absence of UDP, 2 mM glycopeptide, 60 µM enzyme, 25 mM TRIS pH 7.5, 150 mM NaCl, 1 mM MnCl2, 20 °C, one-site fit ± fit error, n = 2
  Kd: Not measurable under our conditions

## APDTRP
[1]; 500 µM UDP-Gal
  activity as acceptor substrate: inactive
[1]; [8]
  Km app: not active
  Km: ~0.05 mM
[1]; [7]
  kcat app: not active
[1]; [4]
  kcat app/Km app (catalytic efficiency): not active
[2]; excess UDP (1 mM UDP, 1 mM MnCl2), 2 mM (glyco)peptide, 50–60 µM enzyme, 25 mM TRIS pH 7.5, 150 mM NaCl, 20 °C, one-site fit ± fit error, n = 2
  Kd: Not measurable under our conditions
[2]; [9]
  -TΔS: Not measurable under our conditions
  n (stoichiometry of binding): Not measurable under our conditions
  ΔG: Not measurable under our conditions
  ΔH: Not measurable under our conditions
[2]; presence of an excess of UDP
  binding by ITC: no binding
[3]
  STD response: did not display STD response

## O=c1ccn([C@@H]2O[C@H](COP(=O)(O)OP(=O)(O)O)[C@@H](O)[C@H]2O)c(=O)[nH]1 [UDP]
[2]
  Kd: 18.4 µM
[2]; ITC, relative to APDT*RP
  binding, fold stronger than binding of APDT*RP: ~ 9.5 fold
[2]; [10]
  n (stoichiometry of binding): 0.4
  ΔH: -4.264 ± 0.471 kcal/mol

Reference: paper PMC9065035, “Structural basis for the synthesis of the core 1 structure by C1GalT1” (Nature Communications, 2022)
